Results from patent US11458138B2 (Novartis AG, priority 2017, dated 2022).

Experiments:
limbal stem cells (LSCs) [1] = test: LSC population expansion, p63-alpha immunolabelling and cell count; format: cell-based, human; conditions: for LSC colony formation and p63alpha expression: up to 6 days in culture, vs growth medium and DMSO
Excerpt: FIG. 2A: In the presence of growth medium and DMSO, only a few isolated cells attach to the culture dish and survive up to 6 days. Most cells expressed the human nuclear marker, but few expressed p63alpha. FIGS. 2B and 2C: In contrast, in the presence of LATS inhibitors: compound example no. 49 and example no. […] FIG. 2D: Passaging cells and culturing them in the presence of LATS inhibitor compound example no.
If it is desired to measure the cell number or expansion of the cell population, this may be done for example by taking an aliquot and performing immunocytochemistry (e.g. to count nuclei stained with Sytox Orange) or by live cell imaging under brightfield microscope to count the number of cells or by performing real-time quantitative live-cell analysis of cell confluence at various time points during the cell population expansion phase of the method according to the invention.
The Sytox Orange assay may be performed according to standard protocols known in the art. In brief, after cells have attached to the cell culture dish (typically 24 h after cell plating), the cells are fixed in paraformaldehyde. The cells are then permeabilized (e.g. using a solution of 0.3% Triton X-100) and they are then labeled in a solution of Sytox Orange (e.g. using 0.5 micromolar of Sytox Orange in PBS). The number of nuclei stained with Sytox Orange per surface area are then counted under a Zeiss epifluorescence microscope.
(2) The cell preparation comprises more than 6% p63alpha positive cells. Preferably the cell preparation comprises more than 10%, 20%, 30%, 40%, 50%, 60%, 70%, 80% or 90% p63alpha positive cells. In a preferred embodiment the cell preparation comprises more than 95% p63alpha positive cells. The percentage of p63alpha cells may be measured by immunohistochemistry or FACS.

limbal stem cells (LSCs) [2] = test: Immunolabelling of LSC markers DeltaN-p63 alpha/beta/gamma, ABCG2, C/EBP delta; format: cell-based, human; conditions: vs cells cultured in DMSO
Excerpt: In contrast, cells cultured in the presence of LATS inhibitors express markers such as DeltaN-p63 alpha/beta/gamma, ABCG2 and C/EBP delta, normally expressed by LSCs.
(3) The cells express one or more of ABCB5, ABCG2, and C/EBPδ. The expression of ABCB5, ABCG2, and C/EBPδ may be estimated by standard techniques known in the art, such as for example immunohistochemistry and quantitative RT-PCR.

[3] = tested on: YAP phosphorylation in CECs; test: YAP dephosphorylation in CECs by Western blot; format: cell-based, human; conditions: within one hour of treatment, normalized to beta-actin and total YAP
Excerpt: As shown in FIG. 15a by Western blot; FIG. 15b: graph showing phosphorylated YAP levels normalized to beta-actin; and FIG. 15c: graph showing phosphorylated YAP levels normalized to total YAP.

[4] = tested on: YAP phosphorylation in limbal stem cells (LSCs); test: YAP dephosphorylation in LSCs by Western blot; format: cell-based, human; conditions: within one hour of treatment
[5] = tested on: phospho-YAP (ser127) in human LSCs; test: YAP phosphorylation by western blot in LSCs; format: cell-based; conditions: 10 micromolar, 1 hour
Description: Cells obtained as described in Example B1 were detached from the culture dish with Accutase for 10 minutes at 37° C., cell suspensions were rinsed by centrifugation and plated in DMEM F12 supplemented with 10% human serum and 1.3 mM calcium chloride in 6-well plates (Corning) and cultured without LATS inhibitor compounds for 2-4 days.
The medium was then replaced by fresh limbal epithelium cell culture medium (DMEM F12 supplemented with 10% human serum and 1.3 mM calcium chloride) supplemented with LATS inhibitor compound example no. […] Cells were cultured under these conditions for 1 hour at 37° C. in 5% CO2.
To measure the effect of the LATS inhibitors on the downstream target YAP, the YAP phosphorylation levels were measured by western blot as follows. The cell pellets were obtained by trypsin dissociation and centrifugation and washed with PBS. The pellets were lysed with 30 microlitres of RIPA lysis buffer containing protease inhibitor cocktail (Life Technologies) for 30 minutes, with vortexing every 10 minutes. The cell debris were then pelleted at 4° C. for 15 minutes at 14 k rpm and the protein lysate was collected. Protein concentration was quantified using a micro BCA kit (Pierce). Fifteen micrograms of total protein was loaded in each well of 4-20% TGX gels (BioRad) and Western blotting was performed according to the manufacturer's instructions. […]

[6] = tested on: human limbal stem cells (LSCs); test: Human limbal stem cell population expansion, immunohistochemical observation of p63alpha; format: cell-based; conditions: for LSC colony formation and p63alpha expression: 10 micromolar, 6 days without passaging
Description: Cells obtained as described in Example B1 were plated in 24-well plates (Corning) in limbal epithelium cell culture medium (DMEM F12 supplemented with 10% human serum and 1.3 mM calcium chloride) supplemented with LATS inhibitor compound example no. […] Cells were first cultured at 37° C. in 5% CO2 for 6 days after isolation without passaging (FIGS. 2A, 2B and 2C).
To evaluate the ability of the compounds to enable LSC expansion after two passages, LSCs were passaged and cultured for two weeks in the presence of compound example 49 to enable expansion (FIG. 2D). Limbal stem cells (LSCs) were passaged by treating cultures with Accutase for 10 minutes at 37° C., rinsing the cell suspension by centrifugation and plating cells in fresh LSC culture medium supplemented with LATS inhibitor compound example 49.
In order to observe that the expanded cell population expressed p63alpha, this was measured by immunohistochemistry as follows. Cell cultures were fixed with 4% PFA for 20 minutes, permeabilized and blocked in a blocking solution of 0.3% Triton X-100 (Sigma-Aldrich) and 3% donkey serum in PBS for 30 minutes. Cells were then labeled with primary antibody in the blocking solution for 12 hours at 4° C. Primary antibody used was p63alpha from Cell Signalling. Samples were washed in PBS three times and donkey-raised secondary antibody Alexa Fluor 488 (Molecular Probes) at 1:500 dilution were applied for 30 minutes at room temperature. Cells were counter-stained with a human nuclear antigen antibody (Millipore) at a 1:500 dilution in order to label all cells in the culture and confirm their human identity. […] Fluorescence was observed using a Zeiss LSM 880 confocal microscope.

Structure (SMILES) | LSC population expansion after passaging (limbal stem cells (LSCs) [1]; passaged cells cultured for two weeks) | LSC colony formation and p63alpha expression (limbal stem cells (LSCs) [1]) | expression of LSC markers DeltaN-p63 alpha/beta/gamma, ABCG2 and C/EBP delta (limbal stem cells (LSCs) [2]) | YAP dephosphorylation in CECs [3] | YAP dephosphorylation in LSCs [4] | YAP phosphorylation levels in human LSCs (western blot) [5] | LSC colony formation and p63alpha expression [6] | LSC population expansion after passaging ([6]; passaged and cultured two weeks)
CC(C)(O)CC(C)(C)Nc1nc(-c2ccncc2)nc2cnccc12 [Example 49, 2,4-dimethyl-4-{[2-(pyridin-4-yl)pyrido[3,4-d]pyrimidin-4-yl]amino}pentan-2-ol] | enabled cell population expansion and the formation of confluent cultures expressing p63alpha | formed colonies and expressed p63alpha | express typical markers of LSCs | induce YAP dephosphorylation | induce YAP dephosphorylation | reduction in YAP phosphorylation levels | the cells formed colonies and expressed p63alpha | enabled cell population expansion and the formation of confluent cultures expressing p63alpha
Cc1n[nH]cc1-c1nc(NC2(C)CC2)c2ccncc2n1 [Example 133, 2-(3-methyl-1H-pyrazol-4-yl)-N-(1-methylcyclopropyl)pyrido[3,4-d]pyrimidin-4-amine] |  | formed colonies and expressed p63alpha | express typical markers of LSCs | induce YAP dephosphorylation | induce YAP dephosphorylation | reduction in YAP phosphorylation levels | the cells formed colonies and expressed p63alpha | 
